Tests used:
[1] = molecular target: T1, human IL17RB expressed on HEK293 cells (Homo sapiens, UniProt Q9NRM6); assay: Flow cytometry, SM17 binding to HEK293 transfected with human IL-17RB; conditions: SM17 1 μg/ml
T1 construct: transfected either with full-length human or rhesus monkey IL-17RB (SinoBiological, Beijing, China); host or cells: HEK293
T1 sequence (Q9NRM6 18-502): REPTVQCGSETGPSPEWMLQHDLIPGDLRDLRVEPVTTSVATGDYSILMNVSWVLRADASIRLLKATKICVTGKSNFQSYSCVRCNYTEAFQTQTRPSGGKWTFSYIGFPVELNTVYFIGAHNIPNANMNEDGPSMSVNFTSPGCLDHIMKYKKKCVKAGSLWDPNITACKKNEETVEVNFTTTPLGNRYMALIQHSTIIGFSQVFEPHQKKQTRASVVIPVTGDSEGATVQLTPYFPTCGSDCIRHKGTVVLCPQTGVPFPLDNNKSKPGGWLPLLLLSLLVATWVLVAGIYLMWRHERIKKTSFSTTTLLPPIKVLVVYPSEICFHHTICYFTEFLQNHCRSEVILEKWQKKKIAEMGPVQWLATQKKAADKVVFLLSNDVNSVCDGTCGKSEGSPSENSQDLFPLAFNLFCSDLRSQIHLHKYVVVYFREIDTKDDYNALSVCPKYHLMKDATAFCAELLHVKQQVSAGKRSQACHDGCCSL
Method: HEK293 cells (ATCC, Manassas, VA) transfected either with full-length human or rhesus monkey IL-17RB (SinoBiological, Beijing, China) were examined for binding to SM17 following standard protocol for flow cytometry. Wild-type HEK293 stained with IgG4 isotype control (Sino Biological) was used as the negative control and for gating purpose. Briefly, HEK293 cells at a density of 3×10^5 cells were seeded into each well of a 6-well plate. On the next day, human or rhesus Il-17RB full length cDNA were first cloned into pCMV3-untagged expression plasmid through standard molecular cloning technique, and then expression plasmids for human or rhesus IL-17RB were transfected into HEK293 cells by lipofection (Lipofectamine 3000 reagent; Thermo Fisher Scientific). Transfected cells were trypsinized, harvested, and fixed with 4% paraformaldehyde (5 minutes). SM17, or human IgG4 control at 1 μg/ml in washing buffer (3% BSA in PBS) were added to the resuspend cells for incubation at RT for 30 min before Alexa Fluor® 647-conjugated goat anti-human IgG specific antibody (1:2000 dilution in washing buffer) (Jackson ImmunoResearch) was added for flow cytometry analysis using the BD FACSVerse cell analyzer (Becton Dickenson, Franklin Lakes, NJ).

[2] = system: Human PBMCs; assay: CCL17 release from human PBMC incubated with TSLP; assay type: cell-based; parameters: key to Intensity of specific cytokine inhibition, CCL-17: −: no inhibition; +: weak; ++: moderate; +++: strong inhibition
Method: Human PBMCs (4×10^5 per group, Ixcells) were incubated with IL-2 (10 unit/mL, PeproTech) and various alarmin/alarmin combinations to mimic the pro-inflammatory cytokines release during allergic diseases. For IL-5 and IL-13 releases, PBMCs were incubated with IL-2 and three alarmins (all 10 ng/ml) for three days. For CCL17 release, PBMC was incubated with TSLP (10 ng/ml) for 1 day. For CCL8 and IFNγ releases, PBMCs were incubated with IL-12 (10 ng/ml, Sino Biological) and IL-33 (10 ng/ml) for 1 day. Cells were pretreated with SM17 (5 μg/ml) or IgG4 isotype control (5 μg/ml) for an hour before the addition of cytokines.
Supernatants were collected and the cytokine concentration were measured by ELISA kits (R&D systems). These established assays were used to test the potency of and SM17 and bsBps. […] Results were expressed in absolute amount in pg/ml.
SM17, three different SM17-anti-IL33 bsBps and three different SM17-anti-TSLP bsBps (all at 5 μg/ml) were added to human PBMC cultures under conditions that shall induce the release of IFNγ, CCL8, CCL17 and IL-5 as described in Example 11 above. The levels of different cytokines and chemotactic factors in supernatant obtained in induced PBMC were evaluated using standard ELISA methods.

[3] = system: Normal human DCs; assay: Dendritic cell potency assay, TSLP-induced CCL17 production; assay type: cell-based; parameters: key: −: no inhibition; +: weak; ++: moderate; +++: strong inhibition; conditions: 5 μg/mL; TSLP 10 ng/mL, 5 days
Description: TSLP from inflamed epithelium promotes maturation of dendritic cells (DCs) to prime Th2 responses via CCL17, which induces chemotaxis of CD4+ T cells to mediate inflammation (Kitajima and Ziegler. 2013. “Cutting Edge: Identification Of The Thymic Stromal Lymphopoietin-Responsive Dendritic Cell Subset Critical For Initiation Of Type 2 Contact Hypersensitivity”. J Immunol 191: 4903-4907; Bleck et al. 2015. “Co-Expression Of Type 2 Immune Targets In Sputum-Derived Epithelial And Dendritic Cells From Asthmatic Subjects”. J Allergy Clin Immunol 136: 619-627.e5). Normal human DCs were obtained from Lonza (Bend, OR). The DCs were cultured in LGM-3 medium (Lonza). TSLP (10 ng/mL) is added into the DC cultures for 5 days in the presence of 5 μg/mL of SM17, IgG4 isotype control (Sino Biological), SM17-TSLPR bsBp (SM17 fused with TSLP receptor extracellular domain) or SM17-anti-TSLP bsBp 2 #. The supernatants are harvested and the levels of CCL17 measured by ELISA following the manufacturer's specification (R&D systems).

Substance: SM17: humanized anti-IL17RB monoclonal antibody, human IgG4 isotype; HC SEQ ID NO: 32, LC SEQ ID NO: 33
- binding of SM17 to hIL17RB-HEK293 [1]: 46%
- Intensity of specific cytokine inhibition, CCL-17 ([2]; 5 μg/ml, human PBMC): −
- CCL17 release (in words) ([2]; SM17 5 μg/ml, TSLP 10 ng/ml, 1 day, vs IgG4 isotype control): no inhibitory effects
- Potency, inhibition of CCL17 release on dendritic cells [3]: −
